Test results as given in PubChem BioAssay (NCI).
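1) Cells in 96-well plates. 2) Compound, 48 h, 5 concentrations. 3) Linear interpolation between surrounding doses. 4) Unreached endpoint = highest concentration. GI50: concentration for 50% inhibition of growth. TGI is the concentration that stops growth completely.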

What was measured:
Experiment in all cases: inhibition of tumour cell growth, NCI panel, 48 h
M14 melanoma = system: M14 melanoma
UO-31 renal = system: UO-31 renal
HT29 colon = system: HT29 colon
K-562 leukemia = system: K-562 leukemia
HOP-62 NSCLC = system: HOP-62 NSCLC
MCF7 breast = system: MCF7 breast
CAKI-1 renal = system: CAKI-1 renal
HS 578T breast = system: HS 578T breast
T-47D breast = system: T-47D breast
U251 CNS = system: U251 CNS
RXF 393 renal = system: RXF 393 renal
MALME-3M melanoma = system: MALME-3M melanoma
OVCAR-4 ovarian = system: OVCAR-4 ovarian
OVCAR-3 ovarian = system: OVCAR-3 ovarian
UACC-62 melanoma = system: UACC-62 melanoma
IGROV1 ovarian = system: IGROV1 ovarian
TK-10 renal = system: TK-10 renal
NCI/ADR-RES ovarian = system: NCI/ADR-RES ovarian
SNB-75 CNS = system: SNB-75 CNS
SN12C renal = system: SN12C renal
MOLT-4 leukemia = system: MOLT-4 leukemia
786-0 renal = system: 786-0 renal
SF-268 CNS = system: SF-268 CNS
MDA-MB-435 = system: MDA-MB-435
NCI-H460 lung = system: NCI-H460 lung
NCI-H522 lung = system: NCI-H522 lung
SR leukemia = system: SR leukemia
HCT-116 colon = system: HCT-116 colon
OVCAR-8 ovarian = system: OVCAR-8 ovarian
KM12 colon = system: KM12 colon
HCC-2998 colon = system: HCC-2998 colon
HCT-15 colon = system: HCT-15 colon
OVCAR-5 ovarian = system: OVCAR-5 ovarian
PC-3 prostate = system: PC-3 prostate
ACHN renal = system: ACHN renal
BT-549 breast = system: BT-549 breast
UACC-257 melanoma = system: UACC-257 melanoma
CCRF-CEM leukemia = system: CCRF-CEM leukemia
LOX IMVI melanoma = system: LOX IMVI melanoma
EKVX NSCLC = system: EKVX NSCLC
RPMI-8226 leukemia = system: RPMI-8226 leukemia
A498 renal = system: A498 renal
SNB-19 CNS = system: SNB-19 CNS
SK-MEL-28 melanoma = system: SK-MEL-28 melanoma
DU-145 prostate = system: DU-145 prostate
HOP-92 NSCLC = system: HOP-92 NSCLC
MDA-MB-231 breast = system: MDA-MB-231 breast
SF-539 CNS = system: SF-539 CNS
A549 NSCLC = system: A549 NSCLC
SK-MEL-2 melanoma = system: SK-MEL-2 melanoma
SF-295 CNS = system: SF-295 CNS
HL-60(TB) leukemia = system: HL-60(TB) leukemia
NCI-H23 lung = system: NCI-H23 lung
COLO 205 colon = system: COLO 205 colon
NCI-H226 lung = system: NCI-H226 lung
SW-620 colon = system: SW-620 colon
SK-MEL-5 melanoma = system: SK-MEL-5 melanoma
SK-OV-3 ovarian = system: SK-OV-3 ovarian
MDA-N = system: MDA-N

Q: What does the source list for `Cc1c2cc(Cl)c3ccccc3c2c[n+]2ccccc12`?
A: GI50 (M14 melanoma): 3.62 µM; TGI (M14 melanoma): 15.5 µM; GI50 (UO-31 renal): 9.18 µM; TGI (UO-31 renal): > 100 µM; GI50 (HT29 colon): 14 µM; TGI (HT29 colon): 43.1 µM; GI50 (K-562 leukemia): 2.98 µM; TGI (K-562 leukemia): 27.2 µM; GI50 (HOP-62 NSCLC): 2.24 µM; TGI (HOP-62 NSCLC): 16.1 µM; GI50 (MCF7 breast): 2.28 µM; TGI (MCF7 breast): 15 µM; GI50 (CAKI-1 renal): 21.8 µM; TGI (CAKI-1 renal): > 100 µM; GI50 (HS 578T breast): 1.12 µM; TGI (HS 578T breast): 11.9 µM; GI50 (T-47D breast): 0.544 µM; TGI (T-47D breast): 2.53 µM; GI50 (U251 CNS): 0.468 µM; TGI (U251 CNS): 3.61 µM; GI50 (RXF 393 renal): 12.3 µM; TGI (RXF 393 renal): > 65.5 µM; GI50 (MALME-3M melanoma): 0.378 µM; TGI (MALME-3M melanoma): 2.8 µM; GI50 (OVCAR-4 ovarian): 2.71 µM; TGI (OVCAR-4 ovarian): 17.5 µM; GI50 (OVCAR-3 ovarian): 1.62 µM; TGI (OVCAR-3 ovarian): 5.41 µM; GI50 (UACC-62 melanoma): 2.61 µM; TGI (UACC-62 melanoma): 13.3 µM; GI50 (IGROV1 ovarian): 9.18 µM; TGI (IGROV1 ovarian): 60.3 µM; GI50 (TK-10 renal): 23.1 µM; TGI (TK-10 renal): > 100 µM; GI50 (NCI/ADR-RES ovarian): > 100 µM; TGI (NCI/ADR-RES ovarian): > 100 µM; GI50 (SNB-75 CNS): 2.31 µM; TGI (SNB-75 CNS): 12.9 µM; GI50 (SN12C renal): 0.388 µM; TGI (SN12C renal): 3.52 µM; GI50 (MOLT-4 leukemia): 4.5 µM; TGI (MOLT-4 leukemia): 34.9 µM; GI50 (786-0 renal): 4.11 µM; TGI (786-0 renal): 33 µM; GI50 (SF-268 CNS): 0.364 µM; TGI (SF-268 CNS): 1.58 µM; GI50 (MDA-MB-435): 4.1 µM; TGI (MDA-MB-435): 17.9 µM; GI50 (NCI-H460 lung): 4.12 µM; TGI (NCI-H460 lung): 16.9 µM; GI50 (NCI-H522 lung): 2.13 µM; TGI (NCI-H522 lung): 12.4 µM; GI50 (SR leukemia): 2.4 µM; TGI (SR leukemia): 15.2 µM; GI50 (HCT-116 colon): 7.2 µM; TGI (HCT-116 colon): 32.9 µM; GI50 (OVCAR-8 ovarian): 2.42 µM; TGI (OVCAR-8 ovarian): 26.7 µM; GI50 (KM12 colon): 1.95 µM; TGI (KM12 colon): 9.31 µM; GI50 (HCC-2998 colon): 4.22 µM; TGI (HCC-2998 colon): 17.8 µM; GI50 (HCT-15 colon): 41.8 µM; TGI (HCT-15 colon): > 100 µM; GI50 (OVCAR-5 ovarian): 29.7 µM; TGI (OVCAR-5 ovarian): > 100 µM; GI50 (PC-3 prostate): 2.81 µM; TGI (PC-3 prostate): 20.1 µM; GI50 (ACHN renal): 22 µM; TGI (ACHN renal): > 100 µM; GI50 (BT-549 breast): 1.21 µM; TGI (BT-549 breast): 5.4 µM; GI50 (UACC-257 melanoma): 4.27 µM; TGI (UACC-257 melanoma): 17.9 µM; GI50 (CCRF-CEM leukemia): 3.36 µM; TGI (CCRF-CEM leukemia): 26.3 µM; GI50 (LOX IMVI melanoma): 15 µM; TGI (LOX IMVI melanoma): 38.9 µM; GI50 (EKVX NSCLC): 2.46 µM; TGI (EKVX NSCLC): > 100 µM; GI50 (RPMI-8226 leukemia): 7.75 µM; TGI (RPMI-8226 leukemia): 46 µM; GI50 (A498 renal): > 49.4 µM; TGI (A498 renal): > 100 µM; GI50 (SNB-19 CNS): 0.525 µM; TGI (SNB-19 CNS): 2.76 µM; GI50 (SK-MEL-28 melanoma): 1.8 µM; TGI (SK-MEL-28 melanoma): 4.87 µM; GI50 (DU-145 prostate): 12.8 µM; TGI (DU-145 prostate): 31.6 µM; GI50 (HOP-92 NSCLC): 2.04 µM; TGI (HOP-92 NSCLC): 27.4 µM; GI50 (MDA-MB-231 breast): 11.9 µM; TGI (MDA-MB-231 breast): 39.8 µM; GI50 (SF-539 CNS): 1.71 µM; TGI (SF-539 CNS): 9.35 µM; GI50 (A549 NSCLC): 8.54 µM; TGI (A549 NSCLC): > 100 µM; GI50 (SK-MEL-2 melanoma): 3.58 µM; TGI (SK-MEL-2 melanoma): 11.5 µM; GI50 (SF-295 CNS): 0.813 µM; TGI (SF-295 CNS): 6.58 µM; GI50 (HL-60(TB) leukemia): 19.2 µM; TGI (HL-60(TB) leukemia): 55.3 µM; GI50 (NCI-H23 lung): 2.74 µM; TGI (NCI-H23 lung): 23.5 µM; GI50 (COLO 205 colon): 1.83 µM; TGI (COLO 205 colon): 10.2 µM; GI50 (NCI-H226 lung): 1.8 µM; TGI (NCI-H226 lung): 14.2 µM; GI50 (SW-620 colon): 3.74 µM; TGI (SW-620 colon): 24.2 µM; GI50 (SK-MEL-5 melanoma): 1.22 µM; TGI (SK-MEL-5 melanoma): 2.92 µM; GI50 (SK-OV-3 ovarian): 10.3 µM; TGI (SK-OV-3 ovarian): 53.5 µM

Q: Which results are given for `COC(=O)C1C(=O)N(C)C(=O)N2CCCC12` (stereo unspecified)?
A: TGI (M14 melanoma): > 100 µM; TGI (UO-31 renal): > 100 µM; TGI (HT29 colon): > 100 µM; TGI (K-562 leukemia): > 100 µM; TGI (HOP-62 NSCLC): > 100 µM; TGI (MCF7 breast): > 100 µM; TGI (CAKI-1 renal): > 100 µM; TGI (HS 578T breast): > 100 µM; TGI (T-47D breast): > 100 µM; TGI (U251 CNS): > 100 µM; TGI (RXF 393 renal): > 100 µM; TGI (MALME-3M melanoma): > 100 µM; TGI (OVCAR-4 ovarian): > 100 µM; TGI (OVCAR-3 ovarian): > 100 µM; TGI (UACC-62 melanoma): > 100 µM; TGI (IGROV1 ovarian): > 100 µM; TGI (MDA-N): > 100 µM; TGI (TK-10 renal): > 100 µM; TGI (NCI/ADR-RES ovarian): > 100 µM; TGI (SNB-75 CNS): > 100 µM; TGI (MOLT-4 leukemia): > 100 µM; TGI (786-0 renal): > 100 µM; TGI (SF-268 CNS): > 100 µM; TGI (MDA-MB-435): > 100 µM; TGI (NCI-H460 lung): > 100 µM; TGI (NCI-H522 lung): > 100 µM; TGI (OVCAR-8 ovarian): > 100 µM; TGI (KM12 colon): > 100 µM; TGI (HCC-2998 colon): > 100 µM; TGI (HCT-15 colon): > 100 µM; TGI (OVCAR-5 ovarian): > 100 µM; TGI (PC-3 prostate): > 100 µM; TGI (ACHN renal): > 100 µM; TGI (UACC-257 melanoma): > 100 µM; TGI (CCRF-CEM leukemia): > 100 µM; TGI (LOX IMVI melanoma): > 100 µM; TGI (EKVX NSCLC): > 100 µM; TGI (RPMI-8226 leukemia): > 100 µM; TGI (A498 renal): > 100 µM; TGI (SNB-19 CNS): > 100 µM; TGI (SK-MEL-28 melanoma): > 100 µM; TGI (DU-145 prostate): > 100 µM; TGI (HOP-92 NSCLC): > 100 µM; TGI (MDA-MB-231 breast): > 100 µM; TGI (SF-539 CNS): > 100 µM; TGI (A549 NSCLC): > 100 µM; TGI (SK-MEL-2 melanoma): > 100 µM; TGI (SF-295 CNS): > 100 µM; TGI (HL-60(TB) leukemia): > 100 µM; TGI (NCI-H23 lung): > 100 µM; TGI (COLO 205 colon): > 100 µM; TGI (NCI-H226 lung): > 100 µM; TGI (SW-620 colon): > 100 µM; TGI (SK-MEL-5 melanoma): > 100 µM; TGI (SK-OV-3 ovarian): > 100 µM
